The results in this text go back to patent US20030207843A1, “Treatment of drug-resistant human immunodeficiency virus infection” (priority 1999, published 2003).

Type in all cases: cell-based
The subject of assay [1] is HIV-1LAI selected with DB-PFA, passage 18 (S117T, L214F). Description: Susceptibility of virus selected in vitro with DB-PFA. As for the experimental part:
(§1) Antiviral Susceptibility Assays. The antiviral activity of each compound was determined by inoculating MT-2 cells with HIV-1LAI at a multiplicity of infection (MOI) of 0.01 TCID50/cell, followed by incubation in the presence of three-fold serial drug dilutions (3 wells per dilution) (see Mellors, et. al., Antimicrob. Agents Chemother. 39:1087-1092). Five or seven days after infection, culture supernatants were harvested, lysed with 0.5% triton-X 100 and assayed for p24 antigen concentration using a commercial ELISA assay (DuPont, NEN Products, Wilmington, Del.). The antiviral activity of the compounds is expressed as the IC50, which is the concentration required to inhibit 50% of p24 antigen production. The fold-resistance of a test virus is calculated by dividing the IC50 of the test virus by the IC50 of the HIV-1LAI control virus.
Selection of Resistant Viruses. […] Viral cytopathic effects (CPE) were monitored daily. […] The passaged virus was monitored regularly for a reduction in susceptibility to the compounds by determining the EC50 relative to unpassaged HIV-1LAI (Mellors, et. al., Antimicrob. Agents Chemother. 39:1087-1092). […]

A further assay relates to HIV-1LAI S117T/L214F. Description: p24 reduction assay in MT-2 cells, S117T/L214F. Conditions: Example 6; recombinant virus encoding S117T plus L214F. The method, then: (§2) Cells. MT-2 cells (AIDS Research and Reference Reagent Program, National Institute of Allergy and Infectious Diseases, National Institutes of Health) were maintained in RPMI 1640 supplemented with 10% fetal bovine serum (FBS; JRH Biosciences, Lenexa, Kans.), 10 mM HEPES buffer, 50 IU/ml penicillin and 50 μg/ml streptomycin.
as §1
(§3) Generation of Mutant Recombinant HIV-1. HIV-1 containing the desired mutations were generated by oligonucleotide directed mutagenesis (Altered Sites II, Promega) as previously described (Mellors, et. al., Molecular Pharm. 41:446-451). After mutagenesis, mutant RT was subcloned into the pxxHIV-1LAI cloning vector using the silent XmaI and XbaI restriction sites located at the 5′ and 3′ ends of RT. Clones were DNA sequenced to verify the presence of the desired mutation(s) and electroporated into MT-2 cells as described above to generate infectious mutant recombinant HIV-1.
Mutant RT was generated via oligonucleotide-directed mutagenesis and ligated into the pXXHIV-1LAI cloning vector. […]
(§4) Recombinant viruses containing the mutations selected by invention compounds were also evaluated for their susceptibility to AZT, as shown in Table 8.

The next assay has as its system HIV-1LAI S117T. Kind of assay: p24 reduction assay in MT-2 cells, S117T. Conditions: Example 6, recombinant virus encoding S117T. As for the experimental part: as §2, §1, §3
Mutant RT was generated via oligonucleotide-directed mutagenesis and ligated into the pXXHIV-1LAI cloning vector. Cloning was facilitated by the presence of two silent restriction sites at the 5′ and 3′ ends (Xma1 and Xba1, respectively) of pXXHIV-1LAI RT. Infectious mutant recombinant HIV-1 was generated by electroporating MT-2 cells with mutated pXXHIV-1LAI clones. The presence of the desired mutations was verified by DNA sequencing.
DNA sequencing identified two mutations in RT: S117T and L214F.
as §4

Assay [2] has as its system HIV-1LAI (wild type, control). Kind of assay: p24 reduction assay in MT-2 cells, wild type virus. Conditions: Table 6; baseline virus HIV-1LAI passage 0; read-out: EC50. As for the experimental part:
as §2
Viruses. Stock virus was prepared by electroporating (BIO-RAD Gene Pulser®, Hercules, Calif.) MT-2 cells (1.3×10^7 cells) with 5-10 μg of plasmid DNA encoding a proviral clone of HIV-1LAI (see Nguyen, et. al., Antimicrob. Agents Chemother. 38:2409-2414, and Peden, et. al., Virology 185: 661-672.). At peak cytopathic effect (generally 5-7 days post-transfection), culture supernatants were harvested and stored at −80° C. Viral infectivity titers were determined in threefold endpoint dilution assays conducted in MT-2 cells (six wells per dilution). The 50% tissue culture infective dose (TCID50) was calculated using the Reed and Muench equation (see Reed, et. al., Am. J. Hyg. 27:493-496).
as §1, with “[…],” for “was determined by inoculating MT-2 cells with HIV-1LAI at a multiplicity of infection (MOI) of 0.01 TCID50/cell,”
Cultures of MT-2 cells infected with either wild type (xxLAI) or with the drug-resistant strains of HIV-1 listed above were treated with lipid analogs of PFA (B-PFA, MB-PFA, or EB-PFA). The μM concentration required to produce 50% inhibition of replication of the drug-resistant strain of HIV (EC50) was determined as shown in Table 1. Drug effects were measured by assaying p24 (a viral protein) in the culture medium.

On to “1-O-octadecyl-propanediol-3-PFA [DB-PFA]”, for which the half-maximal effective concentration (EC50) in assay [1] (Table 6, passage 18 (S117T, L214F)) was 8.97 µM; in the assay on HIV-1LAI S117T (read-out: EC50) it was 9 µM; in assay [2], 0.83 µM. This substance also gave a Fold resist. in assay [1] (Table 6, passage 18, relative to passage 0) of 10.8. The Fold resistance in the assay on HIV-1LAI S117T/L214F was determined as 9.7 fold; with HIV-1LAI S117T it was 10.0 fold.
